Data taken from patent publication US7858786B2, “Pyrimidines and pyrazines useful as modulators of ion channels” (Vertex Pharmaceuticals Incoropated, priority 2005, dated 2010).

Target: T1, NaV1.8 (Homo sapiens, UniProt Q9Y5Y9)
Assay: Activity against NaV 1.8 channel (NaV inhibition assay)
Type: cell-based
Details: not given
Procedure: Compounds of the invention are useful as antagonists of voltage-gated sodium ion channels. Antagonist properties of test compounds were assessed as follows. Cells expressing the NaV of interest were placed into microtiter plates. After an incubation period, the cells were stained with fluorescent dyes sensitive to the transmembrane potential. The test compounds were added to the microtiter plate. The cells were stimulated with either a chemical or electrical means to evoke a NaV dependent membrane potential change from unblocked channels, which was detected and measured with trans-membrane potential-sensitive dyes. Antagonists were detected as a decreased membrane potential response to the stimulus. The optical membrane potential assay utilized voltage-sensitive FRET sensors described by Gonzalez and Tsien (See, Gonzalez, J. E. and R. Y. Tsien (1995) “Voltage sensing by fluorescence resonance energy transfer in single cells” Biophys J 69(4):1272-80, and Gonzalez, J. E. and R. Y. Tsien (1997) “Improved indicators of cell membrane potential that use fluorescence resonance energy transfer” Chem Biol 4(4):269-77) in combination with instrumentation for measuring fluorescence changes such as the Voltage/Ion Probe Reader (VIPRO®) (See, Gonzalez, J. E., K. Oades, et al. (1999) “Cell-based assays and instrumentation for screening ion-channel targets” Drug Discov Today 4(9):431-439).
24 hours before the assay on VIPR, CHO cells endogenously expressing a NaV1.2 type voltage-gated NaV are seeded in 96-well poly-lysine coated plates at 60,000 cells per well. Other subtypes are performed in an analogous mode in a cell line expressing the NaV of interest.
The following is an example of how NaV1.3 inhibition activity is measured using the optical membrane potential method #2. Other subtypes are performed in an analogous mode in a cell line expressing the NaV of interest.
HEK293 cells stably expressing NaV1.3 are plated into 96-well microtiter plates. After an appropriate incubation period, the cells are stained with the voltage sensitive dyes CC2-DMPE/DiSBAC2(3) as follows.
Patch clamp electrophysiology was used to assess the efficacy and selectivity of sodium channel blockers in dorsal root ganglion neurons. Rat neurons were isolated from the dorsal root ganglions and maintained in culture for 2 to 10 days in the presence of NGF (50 ng/ml) (culture media consisted of NeurobasalA supplemented with B27, glutamine and antibiotics). Small diameter neurons (nociceptors, 8-12 μm in diameter) have been visually identified and probed with fine tip glass electrodes connected to an amplifier (Axon Instruments). The “voltage clamp” mode has been used to assess the compound's IC50 holding the cells at −60 mV. In addition, the “current clamp” mode has been employed to test the efficacy of the compounds in blocking action potential generation in response to current injections. The results of these experiments have contributed to the definition of the efficacy profile of the compounds.
TTX-resistant sodium currents were recorded from DRG somata using the whole-cell variation of the patch clamp technique. Recordings were made at room temperature (˜22° C.) with thick walled borosilicate glass electrodes (WPI; resistance 3-4 MΩ) using an Axopatch 200B amplifier (Axon Instruments). After establishing the whole-cell configuration, approximately 15 minutes were allowed for the pipette solution to equilibrate within the cell before beginning recording. Currents were lowpass filtered between 2-5 kHz and digitally sampled at 10 kHz. Series resistance was compensated 60-70% and was monitored continuously throughout the experiment. The liquid junction potential (−7 mV) between the intracellular pipette solution and the external recording solution was not accounted for in the data analysis. Test solutions were applied to the cells with a gravity driven fast perfusion system (SF-77; Warner Instruments). […]

T1 sequence (Q9Y5Y9 whole entry, looked up): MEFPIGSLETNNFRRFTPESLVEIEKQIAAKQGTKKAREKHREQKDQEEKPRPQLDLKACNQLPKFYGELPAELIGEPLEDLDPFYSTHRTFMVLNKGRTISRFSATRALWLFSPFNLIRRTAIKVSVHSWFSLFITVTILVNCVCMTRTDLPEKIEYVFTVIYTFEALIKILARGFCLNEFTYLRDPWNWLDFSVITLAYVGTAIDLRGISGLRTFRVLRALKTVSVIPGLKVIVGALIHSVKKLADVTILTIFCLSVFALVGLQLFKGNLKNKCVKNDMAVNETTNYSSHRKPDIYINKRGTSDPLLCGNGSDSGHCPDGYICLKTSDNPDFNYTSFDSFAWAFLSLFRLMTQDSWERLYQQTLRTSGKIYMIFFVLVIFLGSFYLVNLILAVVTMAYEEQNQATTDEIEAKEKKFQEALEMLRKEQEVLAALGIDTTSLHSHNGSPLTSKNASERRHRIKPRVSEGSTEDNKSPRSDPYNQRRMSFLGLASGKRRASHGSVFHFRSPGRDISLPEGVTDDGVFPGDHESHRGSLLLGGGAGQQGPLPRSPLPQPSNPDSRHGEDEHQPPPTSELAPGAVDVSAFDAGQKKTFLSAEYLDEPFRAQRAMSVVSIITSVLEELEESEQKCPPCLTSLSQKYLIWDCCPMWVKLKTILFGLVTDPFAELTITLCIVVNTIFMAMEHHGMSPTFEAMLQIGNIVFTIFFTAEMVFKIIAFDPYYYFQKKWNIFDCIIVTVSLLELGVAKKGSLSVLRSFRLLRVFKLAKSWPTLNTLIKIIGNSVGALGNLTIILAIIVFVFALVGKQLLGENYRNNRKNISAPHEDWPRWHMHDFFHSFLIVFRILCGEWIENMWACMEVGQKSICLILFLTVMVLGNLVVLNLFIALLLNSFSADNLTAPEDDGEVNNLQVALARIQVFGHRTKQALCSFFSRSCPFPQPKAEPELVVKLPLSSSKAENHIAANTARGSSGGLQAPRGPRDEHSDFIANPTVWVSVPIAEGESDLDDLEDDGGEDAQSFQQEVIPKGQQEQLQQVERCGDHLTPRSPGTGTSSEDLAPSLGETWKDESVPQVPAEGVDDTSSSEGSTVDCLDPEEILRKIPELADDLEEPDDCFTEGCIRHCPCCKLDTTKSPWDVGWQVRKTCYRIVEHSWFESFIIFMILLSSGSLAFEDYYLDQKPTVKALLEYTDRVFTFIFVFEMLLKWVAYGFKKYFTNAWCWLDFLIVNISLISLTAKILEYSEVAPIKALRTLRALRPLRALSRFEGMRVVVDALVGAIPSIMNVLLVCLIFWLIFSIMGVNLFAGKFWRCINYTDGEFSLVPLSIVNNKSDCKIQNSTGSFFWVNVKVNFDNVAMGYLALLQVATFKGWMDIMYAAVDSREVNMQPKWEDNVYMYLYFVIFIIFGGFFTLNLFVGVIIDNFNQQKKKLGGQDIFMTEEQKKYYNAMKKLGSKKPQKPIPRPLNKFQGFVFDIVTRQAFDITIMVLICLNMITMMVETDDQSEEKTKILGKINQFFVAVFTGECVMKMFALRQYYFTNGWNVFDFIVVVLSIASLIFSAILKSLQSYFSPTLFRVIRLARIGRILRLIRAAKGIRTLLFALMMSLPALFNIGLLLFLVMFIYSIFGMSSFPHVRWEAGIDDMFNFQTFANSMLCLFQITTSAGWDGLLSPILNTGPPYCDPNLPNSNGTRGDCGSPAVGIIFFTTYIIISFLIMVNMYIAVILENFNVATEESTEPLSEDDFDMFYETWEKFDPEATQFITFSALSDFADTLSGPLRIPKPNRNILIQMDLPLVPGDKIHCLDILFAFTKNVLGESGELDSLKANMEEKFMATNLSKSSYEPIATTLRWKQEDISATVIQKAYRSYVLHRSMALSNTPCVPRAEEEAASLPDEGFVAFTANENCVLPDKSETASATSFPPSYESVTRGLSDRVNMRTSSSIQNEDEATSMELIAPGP

SMILES | IC50
CC(C)(C)OC(=O)N[C@@H]1CCN(c2cncc(-c3ccccc3F)n2)C1 [Compound 8, [1-[6-(2-fluorophenyl)pyrazin-2-yl]pyrrolidin-3-yl]aminoformic acid tert-butyl ester] | 10 to 15 µM
O=C(NC1CCN(c2ccnc(-c3ccccc3F)n2)CC1)[C@H]1CCCO1 [Compound 2, N-[1-[2-(2-fluorophenyl)pyrimidin-4-yl]-4-piperidyl]tetrahydrofuran-2-carboxamide] | > 15 µM
COCCOC(=O)N[C@@H]1CCN(c2cncc(-c3ccccc3F)n2)C1 [Compound 27, [1-[6-(2-fluorophenyl)pyrazin-2-yl]pyrrolidin-3-yl]aminoformic acid 2-methoxyethyl ester] | > 15 µM
CC(C)COC(=O)N1CCN(c2cc(-c3ccccc3F)ncn2)CC1 [Compound 23, 4-[6-(2-fluorophenyl)pyrimidin-4-yl]piperazine-1-carboxylic acid isobutyl ester] | > 15 µM
COCCOC(=O)NC1CCN(c2cncc(-c3ccccc3F)n2)CC1 [Compound 9, [1-[6-(2-fluorophenyl)pyrazin-2-yl]-4-piperidyl]aminoformic acid 2-methoxyethyl ester] | < 10 µM
CC(C)C(=O)N[C@@H]1CCN(c2cncc(-c3ccccc3C(F)F)n2)C1 [Compound 28, N-[1-[6-[2-(difluoromethyl)phenyl]pyrazin-2-yl]pyrrolidin-3-yl]-2-methyl-propanamide] | > 15 µM
COCCOC(=O)N[C@H]1CCN(c2cncc(-c3ccccc3C(F)F)n2)C1 [Compound 11, [1-[6-[2-(difluoromethyl)phenyl]pyrazin-2-yl]pyrrolidin-3-yl]aminoformic acid 2-methoxyethyl ester] | > 15 µM
CC(C)COC(=O)N1CCN(c2cc(-c3ccccc3C(F)F)ncn2)CC1 [Compound 4, 4-[6-[2-(difluoromethyl)phenyl]pyrimidin-4-yl]piperazine-1-carboxylic acid isobutyl ester] | > 15 µM
CC(C)C(=O)N[C@@H]1CCN(c2cncc(-c3ccccc3O)n2)C1 [Compound 14, N-[1-[6-(2-hydroxyphenyl)pyrazin-2-yl]pyrrolidin-3-yl]-2-methyl-propanamide] | > 15 µM
CC(C)C[C@@H](O)C(=O)N1CCN(c2cc(-c3ccccc3O)ncn2)CC1 [Compound 26, 2-hydroxy-1-[4-[6-(2-hydroxyphenyl)pyrimidin-4-yl]piperazin-1-yl]-4-methyl-pentan-1-one] | > 15 µM
CC(C)C(=O)N[C@@H]1CCN(c2cncc(-c3ccccc3F)n2)C1 [Compound 7, N-[1-[6-(2-fluorophenyl)pyrazin-2-yl]pyrrolidin-3-yl]-2-methyl-propanamide] | > 15 µM
CC(C)C[C@@H](O)C(=O)N1CCN(c2ccnc(-c3ccccc3C(F)F)n2)CC1 [Compound 21, 1-[4-[2-[2-(difluoromethyl)phenyl]pyrimidin-4-yl]piperazin-1-yl]-2-hydroxy-4-methyl-pentan-1-one] | > 15 µM
CC(C)C[C@@H](O)C(=O)N1CCN(c2ccnc(-c3ccccc3O)n2)CC1 [Compound 12, 2-hydroxy-1-[4-[2-(2-hydroxyphenyl)pyrimidin-4-yl]piperazin-1-yl]-4-methyl-pentan-1-one] | 10 to 15 µM
CC(C)COC(=O)N1CCN(c2cncc(-c3ccccc3O)n2)CC1 [Compound 33, 4-[6-(2-hydroxyphenyl)pyrazin-2-yl]piperazine-1-carboxylic acid isobutyl ester] | < 10 µM

Target: T1, NaV1.8
Assay: not given
Details: read-out: TTX IC50; cited from earlier work

SMILES | IC50
NC1=N[C@H](O)[C@H]2[C@H]3O[C@]4(O)O[C@@H]([C@@H](O)[C@@]2(N1)[C@@H]4O)[C@]3(O)CO [TTX, tetrodotoxin] | > 50 µM

System: neuropathic pain
Assay: not given
Details: modest efficacy; cited from earlier work

SMILES | patients in which it works
NCC1(CC(=O)O)CCCCC1 [Gabapentin] | 60%
